Reference: ChEMBL document CHEMBL4765407, “Design, synthesis and high antitumor potential of new unsymmetrical bisacridine derivatives towards human solid tumors, specifically pancreatic cancers and their unique ability to stabilize DNA G-quadruplexes” (Eur J Med Chem, 2020)
pIC50: −log10 of the molar value.

Legend:
[1] = system: W256; test: Antitumour activity against Walker 256 adenocarcinoma cells implanted in Wistar rat assessed as increase in animal survival rate by measuring T/C ratio at 1.25 mg/kg, ip qd for 3 days administered on day 3,4,5 after tumor cell transplantation; format: functional; conditions: time 3 day
[2] = system: MIA PaCa-2; test: Cytotoxicity against human MIA PaCa-2 cells assessed as reduction in cell viability measured after 72 hrs by SRB assay; format: functional, cell-based; conditions: MIA PaCa-2, 72 h
[3] = system: DU-145; test: Cytotoxicity against human DU-145 cells assessed as reduction in cell viability measured after 72 hrs by SRB assay; format: functional, cell-based; conditions: DU-145, 72 h
[4] = system: PANC-1; test: Cytotoxicity against human PANC-1 cells assessed as reduction in cell viability measured after 72 hrs by SRB assay; format: functional, cell-based; conditions: PANC-1, 72 h
[5] = system: NCI-H460; test: Cytotoxicity against human NCI-H460 cells assessed as reduction in cell viability measured after 72 hrs by SRB assay; format: functional, cell-based; conditions: NCI-H460, 72 h
[6] = system: W256; test: Antitumour activity against Walker 256 adenocarcinoma cells implanted in Wistar rat assessed as increase in animal survival rate by measuring T/C ratio at 5 mg/kg, ip qd for 3 days administered on day 3,4,5 after tumor cell transplantation; format: functional; conditions: time 3 day
[7] = system: HCT-116; test: Cytotoxicity against human HCT-116 cells assessed as reduction in cell viability measured after 72 hrs by SRB assay; format: functional, cell-based; conditions: HCT-116, 72 h
[8] = system: HT-29; test: Cytotoxicity against human HT-29 cells assessed as reduction in cell viability measured after 72 hrs by SRB assay; format: functional, cell-based; conditions: HT-29, 72 h
[9] = system: LNCaP; test: Cytotoxicity against human LNCaP cells assessed as reduction in cell viability measured after 72 hrs by SRB assay; format: functional, cell-based
[10] = system: W256; test: Antitumour activity against Walker 256 adenocarcinoma cells implanted in Wistar rat assessed as increase in animal survival rate by measuring T/C ratio at 20 mg/kg, ip qd for 3 days administered on day 3,4,5 after tumor cell transplantation; format: functional; conditions: time 3 day
[11] = system: MDA-MB-231; test: Cytotoxicity against human MDA-MB-231 cells assessed as reduction in cell viability measured after 72 hrs by SRB assay; format: functional, cell-based; conditions: MDA-MB-231, 72 h
[12] = system: W256; test: Antitumour activity against Walker 256 adenocarcinoma cells implanted in Wistar rat assessed as increase in animal survival rate by measuring T/C ratio at 40 mg/kg, ip qd for 3 days administered on day 3,4,5 after tumor cell transplantation; format: functional; conditions: time 3 day
[13] = system: Quadruplex DNA; test: Stabilization of 5'-FAM/3'-TAMRA labeled K-Ras G4 quadruplex DNA (unknown origin) assessed as change in melting temperature at 10 microM measured after 15 mins by FRET assay; format: nucleic-acid assay
[14] = system: Quadruplex DNA; test: Stabilization of 5'-FAM/3'-TAMRA labeled c-Myc promoter G4 quadruplex DNA FPu18 (unknown origin) assessed as change in melting temperature at 10 microM measured after 15 mins by FRET assay; format: nucleic-acid assay
[15] = system: ASPC1; test: Cytotoxicity against human ASPC1 cells assessed as reduction in cell viability measured after 72 hrs by SRB assay; format: functional, cell-based; conditions: ASPC1, 72 h
[16] = system: Quadruplex DNA; test: Stabilization of 5'-FAM/3'-TAMRA labeled telomeric G4 quadruplex DNA F21T (unknown origin) assessed as change in melting temperature at 10 microM measured after 15 mins by FRET assay; format: nucleic-acid assay
[17] = Stabilization of ds 5'-FAM-d(TATAGCTATA-HEG-TATAGCTATA)-TAMRA-3' (unknown origin) assessed as change in melting temperature at 10 microM measured after 15 mins by FRET assay; conditions: Homo sapiens
[18] = system: W256; test: Antitumour activity against Walker 256 adenocarcinoma cells implanted in Wistar rat assessed as increase in animal survival rate by measuring T/C ratio at 10 mg/kg, ip qd for 3 days administered on day 3,4,5 after tumor cell transplantation; format: functional; conditions: time 3 day
[19] = system: MCF7; test: Cytotoxicity against human MCF7 cells assessed as reduction in cell viability measured after 72 hrs by SRB assay; format: functional, cell-based; conditions: MCF7, 72 h

Work on `O=c1c2ccccc2[nH]c2c([N+](=O)[O-])ccc(NCCCNCCNCCCNc3c4ccccc4nc4cccc([N+](=O)[O-])c34)c12` yielded a T/C [1] of 250%, a pIC50 [2] of 7.34 and a pIC50 [3] of 7.26. It also gave a pIC50 [4] of 7.22.

`Cc1ccc([N+](=O)[O-])c2c(NCCNc3ccc(C)c4[nH]c5ccccc5c(=O)c34)c3ccccc3nc12` gave a pIC50 [5] of 6.43, a pIC50 [3] of 6.38 and a T/C [6] of 750%. The pIC50 [7] was 5.90 and the pIC50 [8] was 5.93.

`Cc1ccc([N+](=O)[O-])c2c(NCCCN(C)CCCNc3ccc(C)c4[nH]c5ccccc5c(=O)c34)c3ccccc3nc12` showed a pIC50 [5] of 7.15, a pIC50 [3] of 6.72 and a T/C [6] of 1300%. It also gave a pIC50 [9] of 6.71, a pIC50 [7] of 6.92 and a pIC50 [8] of 6.91.

For `Cc1ccc([N+](=O)[O-])c2c(NCCCN(C)CCCNc3ccc([N+](=O)[O-])c4[nH]c5ccc(O)cc5c(=O)c34)c3ccccc3nc12`, the pIC50 [5] was 7.34, the pIC50 [3] was 7.14 and the T/C [10] was 400%. It also gave a pIC50 [9] of 6.42 and a pIC50 [8] of 6.70.

Work on `Cc1ccc(NCCCN(C)CCCNc2c3ccccc3nc3cccc([N+](=O)[O-])c23)c2c(=O)c3ccccc3[nH]c12` yielded a pIC50 [3] of 7.60, a pIC50 [4] of 7.40 and a pIC50 [11] of 7.41. The pIC50 [8] was 7.31.

Work on `Cc1ccc([N+](=O)[O-])c2c(NCCNCCNc3ccc(C)c4[nH]c5ccccc5c(=O)c34)c3ccccc3nc12` yielded a pIC50 [3] of 6.22, a T/C [12] of 250% and a pIC50 [9] of 6.60. The pIC50 [8] was 6.38.

Compound `NC(CCN1CCN(CCCNc2ccc3nnn4c5ccc(O)cc5c(=O)c2c34)CC1)c1ccc2nc3ccccc3cc2c1[N+](=O)[O-]` (stereo not given) has a ΔTm [13] of 36.5 °C, a pIC50 [2] of 7.77 and a ΔTm [14] of 37.5 °C. For the same compound, the pIC50 [3] was 7.77, the pIC50 [15] was 6.86 and the ΔTm [16] was 27.5 °C. It also gave a pIC50 [4] of 7.44, a pIC50 [11] of 7.54 and a ΔTm [17] of 5.9 °C.

For `Cc1ccc([N+](=O)[O-])c2c(NCCCNCCCNc3ccc([N+](=O)[O-])c4[nH]c5ccc(O)cc5c(=O)c34)c3ccccc3nc12`, the pIC50 [5] was 7.14, the T/C [18] was 1500% and the pIC50 [3] was 7.11. For the same compound, the pIC50 [9] was 6.91, the pIC50 [7] was 7.06 and the pIC50 [8] was 6.89.

In the case of `Cc1ccc([N+](=O)[O-])c2c(NCCCN3CCN(CCCNc4ccc([N+](=O)[O-])c5[nH]c6ccc(O)cc6c(=O)c45)CC3)c3ccccc3nc12`, the pIC50 [5] was 7.33, the pIC50 [3] was 7.21 and the T/C [10] was 250%. For the same compound, the pIC50 [9] was 5.39 and the pIC50 [8] was 6.63.

In the case of `Nc1ccn([C@@H]2O[C@H](CO)[C@@H](O)C2(F)F)c(=O)n1` [GEMCITABINE], the pIC50 [4] was 7.66.

For `CCc1c2c(nc3ccc(OC(=O)N4CCC(N5CCCCC5)CC4)cc13)-c1cc3c(c(=O)n1C2)COC(=O)[C@]3(O)CC` [IRINOTECAN], the pIC50 [7] was 5.01 and the pIC50 [8] was 5.02.

With `Cc1ccc(NCCCNCCCNc2c3ccccc3nc3cccc([N+](=O)[O-])c23)c2c(=O)c3ccccc3[nH]c12` the T/C [1] was 300%, the pIC50 [2] was 6.55 and the pIC50 [19] was 6.64. For the same compound, the pIC50 [3] was 6.74 and the pIC50 [4] was 6.42.

For `Cc1ccc([N+](=O)[O-])c2c(NCCCNCCNCCCNc3ccc([N+](=O)[O-])c4[nH]c5ccccc5c(=O)c34)c3ccccc3nc12`, the pIC50 [2] was 6.96, the pIC50 [3] was 7.06 and the T/C [6] was 350%. It also gave a pIC50 [4] of 6.85.
